Tested on: P12-Ichikawa
Assay: cell viability relative to DMSO control; higher = less cytotoxic
Conditions: 48 h
Procedure, shortened: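 NOMO1 or SEM (500 cells/well) or P12-Ichikawa (1000 cells/well) leukemia cells were adapted for at least four passages in each medium. They were seeded in 1536-well plates (5 μl) and pin-dosed with library compounds in DMSO over an 11-point threefold series, 47 μM to 0.79 nM. CellTiter-Glo One luminescence was read after 48 h at 37°C. Viability is the per-plate percentage relative to DMSO wells, with cell-free wells as background.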

[1] = HPLM + 10% dialyzed FBS, 0.000781 µM
[2] = HPLM + 10% dialyzed FBS, 0.00234 µM
[3] = HPLM + 10% dialyzed FBS, 0.00702 µM
[4] = HPLM + 10% dialyzed FBS, 0.0211 µM
[5] = HPLM + 10% dialyzed FBS, 0.0632 µM
[6] = HPLM + 10% dialyzed FBS, 0.19 µM
[7] = HPLM + 10% dialyzed FBS, 0.569 µM
[8] = HPLM + 10% dialyzed FBS, 1.71 µM
[9] = HPLM + 10% dialyzed FBS, 5.12 µM
[10] = HPLM + 10% dialyzed FBS, 15.4 µM
[11] = HPLM + 10% dialyzed FBS, 46.1 µM
[12] = RPMI 5 mM glucose + 10% FBS, 0.000781 µM
[13] = RPMI 5 mM glucose + 10% FBS, 0.00234 µM
[14] = RPMI 5 mM glucose + 10% FBS, 0.00702 µM
[15] = RPMI 5 mM glucose + 10% FBS, 0.0211 µM
[16] = RPMI 5 mM glucose + 10% FBS, 0.0632 µM
[17] = RPMI 5 mM glucose + 10% FBS, 0.19 µM
[18] = RPMI 5 mM glucose + 10% FBS, 0.569 µM
[19] = RPMI 5 mM glucose + 10% FBS, 1.71 µM
[20] = RPMI 5 mM glucose + 10% FBS, 5.12 µM
[21] = RPMI 5 mM glucose + 10% FBS, 15.4 µM
[22] = RPMI 5 mM glucose + 10% FBS, 46.1 µM
[23] = RPMI 5 mM glucose + 10% dialyzed FBS, 0.000781 µM
[24] = RPMI 5 mM glucose + 10% dialyzed FBS, 0.00234 µM
[25] = RPMI 5 mM glucose + 10% dialyzed FBS, 0.00702 µM
[26] = RPMI 5 mM glucose + 10% dialyzed FBS, 0.0211 µM
[27] = RPMI 5 mM glucose + 10% dialyzed FBS, 0.0632 µM
[28] = RPMI 5 mM glucose + 10% dialyzed FBS, 0.19 µM
[29] = RPMI 5 mM glucose + 10% dialyzed FBS, 0.569 µM
[30] = RPMI 5 mM glucose + 10% dialyzed FBS, 1.71 µM
[31] = RPMI 5 mM glucose + 10% dialyzed FBS, 5.12 µM
[32] = RPMI 5 mM glucose + 10% dialyzed FBS, 15.4 µM
[33] = RPMI 5 mM glucose + 10% dialyzed FBS, 46.1 µM

Structure (SMILES) | cell viability [1] | cell viability [2] | cell viability [3] | cell viability [4] | cell viability [5] | cell viability [6] | cell viability [7] | cell viability [8] | cell viability [9] | cell viability [10] | cell viability [11] | cell viability [12] | cell viability [13] | cell viability [14] | cell viability [15] | cell viability [16] | cell viability [17] | cell viability [18] | cell viability [19] | cell viability [20] | cell viability [21] | cell viability [22] | cell viability [23] | cell viability [24] | cell viability [25] | cell viability [26] | cell viability [27] | cell viability [28] | cell viability [29] | cell viability [30] | cell viability [31] | cell viability [32] | cell viability [33]
CCc1ccc(C(=O)Nc2cc(CN3CCN(C)CC3)cc(C(F)(F)F)c2)cc1C#Cc1cnc2ccnn2c1 | 126% | 118% | 114% | 121% | 120% | 124% | 118% | 117% | 112% | 102% | 88.2% | 119% | 122% | 134% | 113% | 124% | 116% | 113% | 123% | 106% | 102% | 87.3% | 130% | 118% | 121% | 113% | 111% | 119% | 107% | 108% | 104% | 99.1% | 83.8%
Oc1cc2c(cc1O)C1c3ccc(O)c(O)c3OCC1(O)C2 (configuration not stated) | 96.7% | 106% | 108% | 112% | 103% | 113% | 95.5% | 118% | 102% | 111% | 112% | 104% | 96.6% | 102% | 101% | 101% | 103% | 102% | 110% | 118% | 109% | 108% | 97.5% | 93.8% | 103% | 102% | 98.2% | 107% | 106% | 100% | 105% | 104% | 104%
CC[C@H](NC(C)C)[C@H](O)c1ccc(O)c2[nH]c(=O)ccc12 | 108% | 111% | 102% | 106% | 99% | 102% | 101% | 105% | 102% | 92.1% | 97.8% | 102% | 106% | 104% | 101% | 96.9% | 107% | 108% | 94.3% | 95.2% | 94.1% | 92.6% | 91.4% | 98.2% | 97.6% | 95% | 100% | 97.1% | 98.2% | 89.9% | 93.5% | 95.1% | 93.8%
O=C(O)CSCC(=O)NC1CCSC1=O (configuration not stated) | 108% | 108% | 112% | 120% | 120% | 129% | 110% | 114% | 117% | 115% | 116% | 106% | 108% | 114% | 130% | 123% | 114% | 115% | 116% | 111% | 116% | 118% | 103% | 110% | 114% | 114% | 117% | 116% | 115% | 112% | 106% | 127% | 111%

Reference: the supplement of paper PMC11451515
